# Experimental data published in PMC9599613 (Biomolecules, 2022).
# Read-outs that look alike come from different tables or passages of the source.
# Columns and labels:
# [1] = DPPH free radical scavenging assay
# Method: The antioxidant potentials of isolated compounds (phytosteroids 1 and 2) were determined following the DPPH standard assay. Initially, DPPH (24 mg) was dissolved in methanol (100 mL). Stock solutions of the test compounds were prepared in different dilutions (62.50–1000 μg/mL). From each dilution, 1 mL was mixed with 1 mL of the DPPH solution. The solution mixtures were incubated at room temperature for 0.5 h. Afterward, absorbance was recorded at 517 nm with a UV-visible spectrophotometer. Ascorbic acid was the standard drug, whereas the DPPH solution without the compound was negative control. The percent radical scavenging potential of the test compounds was calculated using the following formula: % DPPH activity=X−X1/X×100 where X = absorbance of the control, and X1 = absorbance of the test compound.
# [2] = ABTS free radical scavenging assay
# Method: The antioxidant potentials of isolated phytosteroids 1 and 2 were also determined using the ABTS (2,2′-azino-bis(3-ethylbenzothiazoline-6-sulfonic acid)) standard method. […] This created free radicals within the sample. Afterward, the addition of 50% methanol and the ABTS radical cation solution were adjusted to pH 7.4 by dilution with the phosphate buffer (pH 7.4). […] The positive control was ascorbic acid, and the assay was repeated in triplicate. The percent radical scavenging potential of the test compounds was calculated using the standard reported formula.
# COX-1 = COX-1 (Homo sapiens, UniProt P23219); assay: biochemical; conditions: read-out: % COX-1 Inhibition
# Method: (§1) The Cyclooxygenase enzymes (COX-1 and 2) inhibitory potential of our test compounds was determined according to the previously reported procedure. […] The enzyme solutions with a concentration of 0.7–0.8 μg/10 μL (COX-1) and 300 U/mL (COX-2) were prepared. To start the assay, for enzyme activation, 10 µL enzyme solution (kept in a cool temperature of 4 °C for 5 min) and cofactor containing hematin (50 µL, 1 mM), glutathione (0.9 mM) and TMPD in a Tris-buffer (0.1 M) with a pH 8.0 was added. After that, 60 µL of the enzyme solution was added to 20 µL of the test samples of various concentrations and incubated at room temperature for 5 to 10 min. Then, 20 µL of arachidonic acid (30 mM) was added to start the reaction. The mixture was then again incubated for 15 min at 37 °C, and absorbances were measured at 570 nm with UV-visible spectrophotometer. […] The % enzyme inhibitions were calculated by using the previously reported formula.
# human recombinant 5-LOX = biological target: T1, human recombinant 5-LOX (Homo sapiens, UniProt P09917); assay: biochemical; conditions: for inhibition at 62.5 µg/mL / inhibition at 125 µg/mL / inhibition at 250 µg/mL / inhibition at 500 µg/mL / inhibition at 1000 µg/mL: read-out: % 5-LOX Inhibition
# T1 sequence (P09917 1-674): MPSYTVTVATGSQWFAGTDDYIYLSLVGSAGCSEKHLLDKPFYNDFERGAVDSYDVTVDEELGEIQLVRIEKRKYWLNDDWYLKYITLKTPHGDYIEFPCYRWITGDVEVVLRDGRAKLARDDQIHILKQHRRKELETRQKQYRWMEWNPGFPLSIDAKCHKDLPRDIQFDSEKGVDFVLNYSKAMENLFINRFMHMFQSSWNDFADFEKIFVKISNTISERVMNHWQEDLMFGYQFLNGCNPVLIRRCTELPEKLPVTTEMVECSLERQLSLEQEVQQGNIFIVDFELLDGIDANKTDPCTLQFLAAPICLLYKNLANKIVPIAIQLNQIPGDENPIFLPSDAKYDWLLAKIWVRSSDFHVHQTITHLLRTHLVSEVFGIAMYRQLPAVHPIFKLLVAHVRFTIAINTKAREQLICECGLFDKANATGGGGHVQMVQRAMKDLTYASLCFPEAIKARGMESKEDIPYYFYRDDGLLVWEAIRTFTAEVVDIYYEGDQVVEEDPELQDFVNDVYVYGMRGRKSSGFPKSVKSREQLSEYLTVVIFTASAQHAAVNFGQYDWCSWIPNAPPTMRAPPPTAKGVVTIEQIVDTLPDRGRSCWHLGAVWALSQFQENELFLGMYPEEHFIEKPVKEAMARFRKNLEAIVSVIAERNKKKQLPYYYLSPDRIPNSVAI
# Method: The lipoxygenase assay on our test compounds was performed by utilizing human recombinant 5-LOX [65]. […] The enzyme solution with a concentration of 10,000 U/mL was prepared, whereas 80 mM linoleic acid solution was used as a substrate. Solutions were prepared in a phosphate buffer (50 mM) with a pH of 6.3, which was also utilized as the blank. To start, various concentrations of our test samples were dissolved in 0.25 mL of the buffer, to which 0.25 mL enzyme solution was added and incubated at 25 °C for 5 min. Afterward, the substrate solution (0.1 mL) was added to the mixture and shaken well. […] In this assay, the standard drug was montelukast, and using the following formula, the % inhibitions were calculated: % enzyme inhibition=X−X1/X×100 where X = absorbance of the negative control (with no test sample), and X1 = absorbance of the test compound.
# [3] = biological target: T2, acetylcholinesterase (AChE) (Electrophorus electricus, UniProt O42275); assay: Anticholinesterase assay (Ellman's), AChE inhibition; format: biochemical
# T2 construct: acetylcholinesterase (AChE, obtained from Electrophorus electricus); from tissue
# Method: (§2) This enzyme method relied on the hydrolytic of acetyl cholinethioiodide (ATChI) by acetylcholinesterase and butyrylthiocholine iodide (BTchI) by butyrylcholinesterase. As a result of this breakdown, 5-thio-2-nitrobenoate anions formed. […] The absorption was measured with a spectrophotometer, as per the protocols. […] An amount of 0.1 M phosphate buffer (8.0 ± 0.1 pH) solution was prepared, whose final pH was adjusted by using the KOH solution.
# (§3) In this assay, 50 µL enzyme solution and 50 µL DTNB reagent were added to 1 mL test samples in a cuvette and then incubated at 30 °C for 15 min. Afterward, a 50 µL substrate solution was added to the mixture.
# [4] = biological target: T3, butyrylcholinesterase (BChE) (Equus caballus, UniProt P81908); assay: Anticholinesterase assay (Ellman's), BChE inhibition; format: biochemical, equine
# T3 construct: butyrylcholinesterase (BChE, obtained from equine serum); from tissue; host or cells: equine serum
# Method: as §2, §3
# COX-2 = biological target: T4, COX-2 (Homo sapiens, UniProt P35354); assay: biochemical
# T4 sequence (P35354 18-604): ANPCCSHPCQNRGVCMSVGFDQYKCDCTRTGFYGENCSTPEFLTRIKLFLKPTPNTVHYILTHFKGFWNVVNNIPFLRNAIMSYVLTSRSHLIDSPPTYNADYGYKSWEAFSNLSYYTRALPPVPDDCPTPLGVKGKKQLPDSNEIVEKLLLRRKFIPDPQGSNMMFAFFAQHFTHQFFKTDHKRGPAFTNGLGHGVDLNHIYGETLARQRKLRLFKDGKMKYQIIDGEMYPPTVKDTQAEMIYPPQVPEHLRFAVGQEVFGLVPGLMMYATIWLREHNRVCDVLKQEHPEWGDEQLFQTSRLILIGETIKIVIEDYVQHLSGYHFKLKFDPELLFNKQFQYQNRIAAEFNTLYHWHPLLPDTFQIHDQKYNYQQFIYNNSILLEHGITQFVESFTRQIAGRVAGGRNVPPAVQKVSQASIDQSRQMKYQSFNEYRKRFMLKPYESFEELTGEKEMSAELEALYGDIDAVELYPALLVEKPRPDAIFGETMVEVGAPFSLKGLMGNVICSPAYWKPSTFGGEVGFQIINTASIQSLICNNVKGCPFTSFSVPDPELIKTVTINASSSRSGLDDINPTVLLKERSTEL
# Method: as §1
# [5] = 1000 μg/mL, listed as compound 1
# T2 sequence (O42275 24-633): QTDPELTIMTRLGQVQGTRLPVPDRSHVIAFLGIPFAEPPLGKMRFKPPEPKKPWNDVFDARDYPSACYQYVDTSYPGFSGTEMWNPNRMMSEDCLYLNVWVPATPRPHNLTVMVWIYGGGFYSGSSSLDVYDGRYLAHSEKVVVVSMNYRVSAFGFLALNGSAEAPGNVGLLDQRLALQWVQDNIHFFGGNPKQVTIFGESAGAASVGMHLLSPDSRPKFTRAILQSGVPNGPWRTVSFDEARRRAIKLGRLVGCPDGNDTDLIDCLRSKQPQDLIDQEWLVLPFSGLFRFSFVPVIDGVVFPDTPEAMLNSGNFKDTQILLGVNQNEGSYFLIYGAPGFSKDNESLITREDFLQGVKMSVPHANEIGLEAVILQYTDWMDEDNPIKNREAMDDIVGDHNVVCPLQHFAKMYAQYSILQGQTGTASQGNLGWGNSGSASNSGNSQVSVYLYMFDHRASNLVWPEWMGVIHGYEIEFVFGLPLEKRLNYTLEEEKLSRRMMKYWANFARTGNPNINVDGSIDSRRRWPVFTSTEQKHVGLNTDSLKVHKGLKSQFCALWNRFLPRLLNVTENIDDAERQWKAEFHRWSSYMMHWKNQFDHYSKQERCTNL
# COX-1, sequence (P23219 24-599): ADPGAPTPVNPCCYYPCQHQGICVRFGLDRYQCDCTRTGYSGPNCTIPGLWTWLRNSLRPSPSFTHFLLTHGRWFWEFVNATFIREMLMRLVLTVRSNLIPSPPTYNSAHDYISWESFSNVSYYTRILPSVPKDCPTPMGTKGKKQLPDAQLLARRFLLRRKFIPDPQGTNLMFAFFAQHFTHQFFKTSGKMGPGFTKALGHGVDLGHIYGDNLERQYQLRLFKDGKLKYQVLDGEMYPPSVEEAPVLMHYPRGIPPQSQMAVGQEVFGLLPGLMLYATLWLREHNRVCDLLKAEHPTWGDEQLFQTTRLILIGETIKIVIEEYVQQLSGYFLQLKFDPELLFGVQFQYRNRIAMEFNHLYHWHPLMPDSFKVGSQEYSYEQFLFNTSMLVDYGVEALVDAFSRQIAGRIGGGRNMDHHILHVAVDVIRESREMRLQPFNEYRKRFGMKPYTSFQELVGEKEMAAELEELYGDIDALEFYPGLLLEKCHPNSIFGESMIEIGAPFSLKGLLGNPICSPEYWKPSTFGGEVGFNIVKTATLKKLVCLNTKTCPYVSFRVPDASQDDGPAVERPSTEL
# T3 sequence (P81908 whole entry): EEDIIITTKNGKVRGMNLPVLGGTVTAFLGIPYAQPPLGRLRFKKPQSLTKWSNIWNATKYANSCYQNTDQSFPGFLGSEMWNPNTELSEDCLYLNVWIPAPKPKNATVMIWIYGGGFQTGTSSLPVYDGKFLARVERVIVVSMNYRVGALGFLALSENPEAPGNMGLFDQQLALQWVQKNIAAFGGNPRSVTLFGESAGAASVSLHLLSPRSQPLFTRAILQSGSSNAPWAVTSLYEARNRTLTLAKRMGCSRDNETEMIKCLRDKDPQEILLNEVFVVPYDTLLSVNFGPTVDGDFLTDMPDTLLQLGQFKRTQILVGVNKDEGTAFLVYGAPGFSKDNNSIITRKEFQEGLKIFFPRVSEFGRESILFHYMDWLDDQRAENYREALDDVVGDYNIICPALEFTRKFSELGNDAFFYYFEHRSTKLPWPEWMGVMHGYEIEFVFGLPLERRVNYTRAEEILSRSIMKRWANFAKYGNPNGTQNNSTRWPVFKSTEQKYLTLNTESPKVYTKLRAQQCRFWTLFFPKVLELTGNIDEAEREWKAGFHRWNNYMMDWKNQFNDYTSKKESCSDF
structure (smiles),measurement,setting,value
"O=C1O[C@H]([C@@H](O)CO)C(O)=C1O [AA, Ascorbic acid, reference compound]",DPPH IC50,[1],11.47 µg/mL
same,Percent DPPH Activity (mean ± SEM),[1]; 62.5 μg/mL,61.30 ± 0.52%
same,Percent DPPH Activity (mean ± SEM),[1]; 125 μg/mL,66.37 ± 0.58%
same,Percent DPPH Activity (mean ± SEM),[1]; 250 μg/mL,72.29 ± 0.43%
same,Percent DPPH Activity (mean ± SEM),[1]; 500 μg/mL,78.58 ± 0.56%
same,Percent DPPH Activity (mean ± SEM),[1]; 1000 μg/mL,84.39 ± 0.60%
same,ABTS IC50,[2],21.72 µg/mL
same,Percent ABTS Activity (mean ± SEM),[2]; 62.5 μg/mL,53.00 ± 0.57%
same,Percent ABTS Activity (mean ± SEM),[2]; 125 μg/mL,62.50 ± 0.44%
same,Percent ABTS Activity (mean ± SEM),[2]; 250 μg/mL,66.33 ± 0.33%
same,Percent ABTS Activity (mean ± SEM),[2]; 500 μg/mL,74.66 ± 1.20%
same,Percent ABTS Activity (mean ± SEM),[2]; 1000 μg/mL,79.00 ± 0.16%
"CC(=O)Oc1ccccc1C(=O)O [Aspirin, aspirin, reference compound]",inhibition at 62.5 µg/mL,COX-1; 62.50 μg/mL,51.68 ± 0.22%
same,inhibition at 125 µg/mL,COX-1; 125 μg/mL,59.84 ± 0.32%
same,inhibition at 250 µg/mL,COX-1; 250 μg/mL,66.43 ± 0.29%
same,inhibition at 500 µg/mL,COX-1; 500 μg/mL,71.88 ± 0.2%
same,inhibition at 1000 µg/mL,COX-1; 1000 μg/mL,75.89 ± 0.2%
"CC(C)C/C=C\C(C)C1CCC2C3CCC4=CC(=O)CCC4(C)C3CCC12C (stereo not drawn) [Compound 1, (Z)-10,13-dimethyl-17-(6-methylhept-3-en-2-yl)-1,2,6,7,8,9,10,11,12,13,14,15,16,17-tetradecahydro-3H-cyclopenta[a]phenanthren-3-one]",IC50,human recombinant 5-LOX,19.3 µM
same,inhibition at 62.5 µg/mL,human recombinant 5-LOX,65.68 ± 0.64%
same,inhibition at 125 µg/mL,human recombinant 5-LOX,71.42 ± 0.46%
same,inhibition at 250 µg/mL,human recombinant 5-LOX,76.53 ± 0.41%
same,inhibition at 500 µg/mL,human recombinant 5-LOX,82.45 ± 0.55%
same,inhibition at 1000 µg/mL,human recombinant 5-LOX,87.63 ± 0.64%
same,DPPH IC50,[1],314.78 µg/mL
same,Percent DPPH Activity (mean ± SEM),[1]; 62.5 μg/mL,31.53 ± 0.71 %
same,Percent DPPH Activity (mean ± SEM),[1]; 125 μg/mL,37.51 ± 0.77 %
same,Percent DPPH Activity (mean ± SEM),[1]; 250 μg/mL,45.75 ± 0.58 %
same,Percent DPPH Activity (mean ± SEM),[1]; 500 μg/mL,56.45 ± 0.49 %
same,Percent DPPH Activity (mean ± SEM),[1]; 1000 μg/mL,64.79 ± 0.62 %
same,Percent DPPH Activity (mean ± SEM),[1]; [5],64.79 ± 0.62%
same,AChE inhibition (%),[3]; 62.5 μg/mL,55.56 ± 0.52 %
same,AChE inhibition (%),[3]; 125 μg/mL,64.78 ± 0.60 %
same,AChE inhibition (%),[3]; 250 μg/mL,71.46 ± 0.53 %
same,AChE inhibition (%),[3]; 500 μg/mL,77.68 ± 0.63 %
same,AChE inhibition (%),[3]; 1000 μg/mL,85.72 ± 0.79 ^ns %
same,IC50,[3]; read-out: AChE IC50 (converted),53 µM
same,IC50,[4],71.5 µM
same,Percent BChE (mean ± SEM),[4]; 62.5 μg/mL,59.81 ± 0.65 %
same,Percent BChE (mean ± SEM),[4]; 125 μg/mL,66.65 ± 0.78 %
same,Percent BChE (mean ± SEM),[4]; 250 μg/mL,75.70 ± 0.62 %
same,Percent BChE (mean ± SEM),[4]; 500 μg/mL,80.76 ± 0.63 %
same,Percent BChE (mean ± SEM),[4]; 1000 μg/mL,84.83 ± 0.62 %
same,inhibition at 62.5 µg/mL,COX-1,22.4 ± 0.49%
same,inhibition at 125 µg/mL,COX-1,40.6 ± 0.84%
same,inhibition at 250 µg/mL,COX-1,43.5 ± 0.46%
same,inhibition at 500 µg/mL,COX-1,59.56 ± 0.45%
same,inhibition at 1000 µg/mL,COX-1,66.29 ± 0.43%
same,IC50,COX-2,28 µM
same,inhibition at 62.5 µg/mL,COX-2; read-out: % COX-2 Inhibition,61.1 ± 0.7%
same,inhibition at 125 µg/mL,COX-2; read-out: % COX-2 Inhibition,66.4 ± 0.7%
same,inhibition at 250 µg/mL,COX-2; read-out: % COX-2 Inhibition,72.7 ± 0.51%
same,inhibition at 500 µg/mL,COX-2; read-out: % COX-2 Inhibition,78.83 ± 0.73%
same,inhibition at 1000 µg/mL,COX-2; read-out: % COX-2 Inhibition,83.13 ± 0.8%
same,ABTS IC50,[2],369.86 µg/mL
same,Percent ABTS Activity (mean ± SEM),[2]; 62.5 μg/mL,29.67 ± 0.61 %
same,Percent ABTS Activity (mean ± SEM),[2]; 125 μg/mL,35.69 ± 0.77 %
same,Percent ABTS Activity (mean ± SEM),[2]; 250 μg/mL,43.83 ± 0.56 %
same,Percent ABTS Activity (mean ± SEM),[2]; 500 μg/mL,54.60 ± 0.80 %
same,Percent ABTS Activity (mean ± SEM),[2]; 1000 μg/mL,62.61 ± 0.77 %
same,Percent ABTS Activity (mean ± SEM),[2]; [5],62.61 ± 0.77%
"CC(C)(O)c1ccccc1CC[C@@H](SCC1(CC(=O)O)CC1)c1cccc(/C=C/c2ccc3ccc(Cl)cc3n2)c1 [Montelukast, montelukast, reference compound]",IC50,human recombinant 5-LOX,7.68 µM
same,inhibition at 62.5 µg/mL,human recombinant 5-LOX; 62.50 μg/mL,74.17 ± 0.72%
same,inhibition at 125 µg/mL,human recombinant 5-LOX; 125 μg/mL,79.6 ± 0.9%
same,inhibition at 250 µg/mL,human recombinant 5-LOX; 250 μg/mL,85.5 ± 0.4%
same,inhibition at 500 µg/mL,human recombinant 5-LOX; 500 μg/mL,89.4 ± 1.65%
same,inhibition at 1000 µg/mL,human recombinant 5-LOX; 1000 μg/mL,93.55 ± 0.4%
